Read-outs that look alike come from different tables or passages of the source.
Assays:
HEK cells [1] = assay: HEK cell viability after 72 h at 50 μM with or without uridine (involvement of DHODH); conditions: 50 μM, 72 h; for reversal of cytotoxicity by uridine: uridine 100 μM
chemically induced AP = test system: chemically induced AP; design: method as in PMID 31050811; conditions: three different murine models; cited from earlier work
SOCE [2] = assay: SOCE inhibition in HEK cells by fluorescence microscopy (calcium imaging); format: cell-based, human; conditions: for inhibition at 10 µM / inhibition at 3 µM: Homo sapiens; for inhibition at 10 µM: negative value = increased Ca2+ entry vs control; for AUC, peak amplitude, and slope of the Ca2+-rise: selected compounds, Figure S1
Method: With these two compounds in hand, two click reactions were performed and compounds 9 and 18 (Table 1), displaying the same substructures as the reference compound Synta66, were obtained with a yield of 31 and 60%, respectively. 9 and 18 were tested for activity on SOCE in HEK cells, a human embryonic kidney (HEK) cell line, by fluorescence microscopy, as described elsewhere.[16] After 600 s, Ca^2+ was added and intracellular levels were measured.
Screening, dose–response experiments, and calcium imaging experiments were performed in HEK cells (ATCC, Rock, ville, MD, USA), as already reported elsewhere.[16]

ICRAC = test system: ICRAC; design: method as in PMID 19648266; conditions: cited from earlier work
HEK cells [3] = test system: HEK cells
SOCE [4] = test system: SOCE; design: method as in PMID 29038464; conditions: HEK cells; cited from earlier work
[5] = HEK293, supplementary CSV, HEK cells, read-out: % SOCE Inhibition (3 µM)

Cc1cccc(F)c1C(=O)Nc1cnc(-c2cc3c(cc2Cl)OC(F)(F)O3)cn1 [CM4620, reference compound]
cell viability / cytotoxicity at 50 μM, 72 h (HEK cells [1]): cytotoxic | reversal of cytotoxicity by uridine (HEK cells [1]): not reverted by uridine | protection in murine models of chemically induced AP (chemically induced AP): protective

COc1ccc(OC)c(-c2ccc(-n3cc(-c4ccncc4F)nn3)cc2)c1 [Compound 9, 4-(1-(2′,5′-Dimethoxy-[1,1′-biphenyl]-4-yl)-1H-1,2,3-triazol-4-yl)-3-fluoropyridine]
effect on SOCE, in words (SOCE [2]; HEK cells): not able to reliably inhibit SOCE

COc1ccc(OC)c(-c2ccc(-n3cc(-c4ccncc4)nn3)cc2)c1 [Compound 10, 4-(1-(2′,5′-Dimethoxy-[1,1′-biphenyl]-4-yl)-1H-1,2,3-triazol-4-yl)pyridine]
effect on SOCE, in words (SOCE [2]; HEK cells): not able to reliably inhibit SOCE | inhibition at 10 µM (SOCE [2]; HEK293, HEK cells, 10 μM): -12.8 ± 14.4% | inhibition at 3 µM (SOCE [2]; [5]): -12.8 ± 14.4%

COc1ccc(OC)c(-c2ccc(-n3cc(-c4cccnc4)nn3)cc2)c1 [Compound 11, 3-(1-(2′,5′-Dimethoxy-[1,1′-biphenyl]-4-yl)-1H-1,2,3-triazol-4-yl)pyridine]
effect on SOCE, in words (SOCE [2]; HEK cells): not able to reliably inhibit SOCE | inhibition at 10 µM (SOCE [2]; HEK293, HEK cells, 10 μM): -14 ± 31.9% | inhibition at 3 µM (SOCE [2]; [5]): -14 ± 31.9%

COc1ccc(OC)c(-c2ccc(-n3cc(-c4ccccn4)nn3)cc2)c1 [Compound 12, 2-(1-(2′,5′-Dimethoxy-[1,1′-biphenyl]-4-yl)-1H-1,2,3-triazol-4-yl)pyridine]
inhibition at 10 µM (SOCE [2]; HEK293, HEK cells, 10 μM): 0% | inhibition at 3 µM (SOCE [2]; [5]): 0%

COc1ccc(OC)c(-c2ccc(-n3cc(-c4ccnc(C(=O)O)c4)nn3)cc2)c1 [Compound 13, 4-(1-(2′,5′-Dimethoxy-[1,1′-biphenyl]-4-yl)-1H-1,2,3-triazol-4-yl)picolinic Acid]
inhibition at 10 µM (SOCE [2]; HEK293, HEK cells, 10 μM): > 70%

COc1ccc(OC)c(-c2ccc(-n3cc(-c4cccc(C(=O)O)c4)nn3)cc2)c1 [Compound 14, 3-(1-(2′,5′-Dimethoxy-[1,1′-biphenyl]-4-yl)-1H-1,2,3-triazol-4-yl)benzoic Acid]
inhibition at 10 µM (SOCE [2]; HEK293, HEK cells, 10 μM): > 70%

COc1ccc(OC)c(-c2ccc(-c3cn(-c4ccncc4)nn3)cc2)c1 [Compound 19, 4-(4-(2′,5′-Dimethoxy-[1,1′-biphenyl]-4-yl)-1H-1,2,3-triazol-1-yl)pyridine]
effect on SOCE, in words (SOCE [2]; HEK cells): not able to reliably inhibit SOCE

COc1ccc(OC)c(-c2ccc(-c3cn(-c4cccnc4)nn3)cc2)c1 [Compound 20, 3-(4-(2′,5′-Dimethoxy-[1,1′-biphenyl]-4-yl)-1H-1,2,3-triazol-1-yl)pyridine]
effect on SOCE, in words (SOCE [2]; HEK cells): not able to reliably inhibit SOCE

COC(=O)c1cc(-n2cc(-c3ccc(-c4cc(OC)ccc4OC)cc3)nn2)ccn1 [Compound 21, Methyl 4-(4-(2′,5′-Dimethoxy-[1,1′-biphenyl]-4-yl)-1H-1,2,3-triazol-1-yl)picolinate]
inhibition at 10 µM (SOCE [2]; HEK293, HEK cells, 10 μM): > 70%

COc1ccc(OC)c(-c2ccc(-c3cn(-c4cccc(C(=O)O)c4)nn3)cc2)c1 [Compound 23, 3-(4-(2′,5′-Dimethoxy-[1,1′-biphenyl]-4-yl)-1H-1,2,3-triazol-1-yl)benzoic Acid]
AUC and peak amplitude of the Ca2+-rise vs control (SOCE [2]; HEK cells, 10 μM): significantly reduced AUC and peak amplitude | inhibition at 10 µM (SOCE [2]; HEK293, HEK cells, 10 μM): > 70%

COc1cccc(-c2ccc(-n3cc(-c4cccc(C(=O)O)c4)nn3)cc2)c1 [Compound 31, 3-(1-(3′-Methoxy-[1,1′-biphenyl]-4-yl)-1H-1,2,3-triazol-4-yl)benzoic Acid]
AUC, peak amplitude, and slope of the Ca2+-rise (SOCE [2]; HEK cells): induced a drop in the three parameters

O=C(O)c1cccc(-c2cn(-c3ccc(-c4cccc5c4OCCO5)cc3)nn2)c1 [Compound 35, 3-(1-(4-(2,3-Dihydrobenzo[b][1,4]dioxin-5-yl)phenyl)-1H-1,2,3-triazol-4-yl)benzoic Acid]
AUC, peak amplitude, and slope of the Ca2+-rise (SOCE [2]; HEK cells): induced a drop in the three parameters

COc1cc(OC)cc(-c2ccc(-n3cc(-c4cccc(C(=O)O)c4)nn3)cc2)c1 [Compound 36, 3-(1-(3′,5′-Dimethoxy-[1,1′-biphenyl]-4-yl)-1H-1,2,3-triazol-4-yl)benzoic Acid]
AUC, peak amplitude, and slope of the Ca2+-rise (SOCE [2]; HEK cells): induced a drop in the three parameters

O=C(O)c1cccc(-c2cn(-c3ccc(-c4ccc5c(c4)OCCO5)cc3)nn2)c1 [Compound 38, 3-(1-(4-(2,3-Dihydrobenzo[b][1,4]dioxin-6-yl)phenyl)-1H-1,2,3-triazol-4-yl)benzoic Acid]
AUC, peak amplitude, and slope of the Ca2+-rise (SOCE [2]; HEK cells): induced a drop in the three parameters

COc1ccc(F)c(-c2ccc(-n3cc(-c4cccc(C(=O)O)c4)nn3)cc2)c1 [Compound 40, 3-(1-(2′-Fluoro-5′-methoxy-[1,1′-biphenyl]-4-yl)-1H-1,2,3-triazol-4-yl)benzoic Acid]
AUC, peak amplitude, and slope of the Ca2+-rise (SOCE [2]; HEK cells): induced a drop in the three parameters

COc1cccc(OC)c1-c1ccc(-c2cn(-c3cccc(C(=O)O)c3)nn2)cc1 [Compound 47, 3-(4-(2′,6′-Dimethoxy-[1,1′-biphenyl]-4-yl)-1H-1,2,3-triazol-1-yl)benzoic Acid]
effect on SOCE, in words (SOCE [2]; HEK cells): positive modulator of SOCE | AUC of calcium entry and peak amplitude vs control (SOCE [2]; HEK cells, 3 μM): significantly increased the AUC of calcium entry and the peak amplitude | slope of the Ca2+-rise vs control (SOCE [2]; HEK cells, 3 μM): absence of effect on slope | inhibition at 3 µM (SOCE [2]; HEK293, HEK cells, 3 μM, negative value = increased SOCE, read-out: % SOCE inhibition (3 μM)): -22.8 ± 0.9%

COc1cccc(-c2ccc(-c3cn(-c4cccc(C(=O)O)c4)nn3)cc2)c1OC [Compound 50, 3-(4-(2′,3′-Dimethoxy-[1,1′-biphenyl]-4-yl)-1H-1,2,3-triazol-1-yl)benzoic Acid]
AUC, peak amplitude, and slope of the Ca2+-rise (SOCE [2]; HEK cells): induced a drop in the three parameters

COc1ccc(F)c(-c2ccc(-c3cn(-c4cccc(C(=O)O)c4)nn3)cc2)c1 [Compound 56, 3-(4-(2′-Fluoro-5′-methoxy-[1,1′-biphenyl]-4-yl)-1H-1,2,3-triazol-1-yl)benzoic Acid]
AUC, peak amplitude, and slope of the Ca2+-rise (SOCE [2]; HEK cells): induced a drop in the three parameters

O=C(O)c1cccc(C(=O)Nc2ccc(-c3ccc4c(c3)OCCO4)cc2)c1 [Compound 64, 3-((4-(2,3-Dihydrobenzo[b][1,4]dioxin-6-yl)phenyl)carbamoyl)benzoic Acid]
cell viability / cytotoxicity at 50 μM, 72 h (HEK cells [1]): significant cytotoxicity | reversal of cytotoxicity by uridine (HEK cells [1]): fully reverted by uridine | effect on SOCE, in words (SOCE [2]; HEK cells): significantly reduced activity compared to the parent compound

O=C(O)c1cccc(NC(=O)c2ccc(-c3ccc4c(c3)OCCO4)cc2)c1 [Compound 69, 3-(4-(2,3-Dihydrobenzo[b][1,4]dioxin-6-yl)benzamido)benzoic Acid]
effect on SOCE, in words (SOCE [2]; HEK cells): significantly reduced activity compared to the parent compound

O=C(Nc1ccn(Cc2ccc(O)cc2C(F)(F)F)n1)c1c(F)cccc1F [GSK-7975A]
protection in murine models of chemically induced AP (chemically induced AP): protective

COc1ccc(OC)c(-c2ccc(NC(=O)c3ccncc3F)cc2)c1 [Synta66, reference compound]
IC50 (ICRAC): 1.4 to 3 µM | cell viability / cytotoxicity at 50 μM, 72 h (HEK cells [1]): significant cytotoxicity | AUC and peak amplitude of the Ca2+-rise vs control (SOCE [2]; HEK cells, 10 μM): significantly reduced AUC and peak amplitude | slope of the Ca2+-rise vs control (SOCE [2]; HEK cells, 10 μM): significant effect on the slope | inhibition at 10 µM (SOCE [2]; HEK293, HEK cells, 10 μM): 90.8 ± 1.7% | inhibition at 3 µM (SOCE [2]; [5]): 90.8 ± 1.7%

Cc1c(-c2ccc(-c3ccccc3F)cc2)nc2ccc(F)cc2c1C(=O)O [brequinar]
cell viability / cytotoxicity at 50 μM, 72 h (HEK cells [3]): cytotoxic | reversal of cytotoxicity by uridine (HEK cells [3]): reverted by uridine addition

C/C(O)=C(\C#N)C(=O)Nc1ccc(C(F)(F)F)cc1 [teriflunomide]
IC50 (SOCE [4]): 4.3 ± 1 µM

Source: article PMC7735735, “Store-Operated Calcium Entry as a Therapeutic Target in Acute Pancreatitis: Discovery and Development of Drug-Like SOCE Inhibitors” (Journal of Medicinal Chemistry, 2020)
